Substitutions are numbered along the chain they refer to.

The test system of one series is CHO. In words: Selectivity ratio of EC50 for human muscarinic acetylcholine receptor M1 to EC50 for rat muscarinic acetylcholine receptor M1 expressed in CHO cells. The series is classed as cell-based.
The target in series [1] is T1, Muscarinic acetylcholine receptor M1 (Rattus norvegicus, UniProt P08482).
T1 sequence (P08482 whole entry): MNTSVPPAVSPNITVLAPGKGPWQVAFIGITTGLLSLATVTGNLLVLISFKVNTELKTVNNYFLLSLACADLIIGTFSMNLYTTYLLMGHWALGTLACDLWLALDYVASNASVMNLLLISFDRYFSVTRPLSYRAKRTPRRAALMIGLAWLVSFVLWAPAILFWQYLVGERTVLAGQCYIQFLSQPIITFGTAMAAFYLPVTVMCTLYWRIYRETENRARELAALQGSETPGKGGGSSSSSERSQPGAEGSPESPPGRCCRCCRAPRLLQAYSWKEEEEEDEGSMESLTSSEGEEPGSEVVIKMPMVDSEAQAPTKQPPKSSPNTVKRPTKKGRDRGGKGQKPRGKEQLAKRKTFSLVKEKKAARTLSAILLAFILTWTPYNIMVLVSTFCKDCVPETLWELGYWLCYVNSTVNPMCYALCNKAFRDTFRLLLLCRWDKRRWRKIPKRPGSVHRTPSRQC
Nature of the series: Positive allosteric modulation at rat muscarinic acetylcholine receptor M1 expressed in CHO cells assessed as potentiation of acetylcholine-induced calcium mobilization. The series is classed as functional, cell-based. (In general: Calcium assays in cells follow changes in intracellular calcium, usually with a dye or a luminescent sensor.)

Series [2] deals with T2, Muscarinic acetylcholine receptor M1 (Rattus norvegicus) (UniProt P08482).
T2 sequence (whole entry): T1 sequence (P08482 whole entry)
Nature of the series: Positive allosteric modulation at rat muscarinic acetylcholine receptor M1 expressed in CHO cells assessed as potentiation of acetylcholine-induced calcium mobilization in relative to acetylcholine. In kind it is functional, cell-based.

Series [3] deals with T3, Muscarinic acetylcholine receptor M1 (Homo sapiens, UniProt P11229).
T3 sequence (P11229 whole entry): T1 sequence (P08482 whole entry) with V5A, S254T, S309P, K320R, G337A, V413I
Nature of the series: Positive allosteric modulation at human muscarinic acetylcholine receptor M1 expressed in CHO cells assessed as potentiation of acetylcholine-induced calcium mobilization. In kind it is functional, cell-based.

Series [4] can be described thus: Brain to plasma partition coefficient in Sprague-Dawley rat at 0.20 to 0.25 mg/kg, iv administered through cassette dosing after 0.25 hrs. The settings on record: for Kp at 0.25 h: Sprague-Dawley, brain and plasma. The series is classed as ADME, organism-based.
The nature of series [5]: Unbound brain to plasma partition coefficient in Sprague-Dawley rat at 0.20 to 0.25 mg/kg, iv administered through cassette dosing after 0.25 hrs. In kind it is ADME, organism-based. The settings on record: brain and plasma; for Kp uu at 0.25 h: read-out: K(p,uu,brain).
Series [6] can be described thus: Fraction unbound in rat plasma. The series is classed as ADME, cell-free.
Series [7] is described as follows: Fraction unbound in human plasma. The series is classed as ADME, cell-free.
Series [8] addresses T3, Muscarinic acetylcholine receptor M1. Nature of the series: Positive allosteric modulation at human muscarinic acetylcholine receptor M1 assessed as effect on beta-arrestin recruitment.
For series [9] the target is unchanged. Nature of the series: Positive allosteric modulation at human muscarinic acetylcholine receptor M1 assessed as effect on receptor internalization.
For series [10], the target named is T4, Muscarinic acetylcholine receptor M1 (Homo sapiens) (UniProt P11229).
T4 sequence (whole entry): T1 sequence (P08482 whole entry) with V5A, S254T, S309P, K320R, G337A, V413I
In words: Positive allosteric modulation at human muscarinic acetylcholine receptor M1 expressed in CHO cells assessed as potentiation of acetylcholine-induced calcium mobilization relative to acetylcholine. The series is classed as functional, cell-based.

In series [11] the target is T4, Muscarinic acetylcholine receptor M1 (Homo sapiens). Nature of the series: Positive allosteric modulation at human muscarinic acetylcholine receptor M1 assessed as effect on beta-arrestin recruitment relative to acetylcholine. Background: Activated receptors often draw arrestin, which recruitment assays turn into a signal.
Series [12] in a line: Fraction unbound in rat brain homogenate. In kind it is ADME, tissue-based.

In the case of `Cn1cc2c(-c3cc(F)c(Cn4cnc5ccccc5c4=O)c(F)c3)cccc2n1`, in the series with CHO, the Ratio EC50 stood at 2. The figures for the EC50 in series [1] and in series [3] were 4.7 µM and greater than 10 µM, respectively. Also, the %max in [2] came to 45%. Moreover, the concentration ratio (Kp) (usually tissue or fluid exposure divided by exposure in the circulation) at 0.25 h in series [4] amounted to 0.79. For the same compound, the Kp uu at 0.25 h in [5] was found to be 0.32. For the same compound, the fraction unbound in [6] and in series [7] was 0.01 in each case.
As to `O=c1c2ccncc2ncn1Cc1c(F)cc(-c2ccc3cnccc3c2)cc1F`, in [1], the EC50 (in general, the concentration needed to bring the measured effect to its halfway point) was determined as 6.1 µM. Moreover, in series [4], the Kp at 0.25 h was determined as 3.1. Also, in series [5], the Kpuu at 0.25 h is 2.7. Further, the fraction unbound in series [6] and in series [7] was 0.03 in each case.
On to `Cn1cc2c(-c3cc(F)c(Cn4cnc5cnccc5c4=O)c(F)c3)cccc2n1`, for which the EC50 in series [8] was 0.98 µM; in series [9], greater than 10 µM; in [1] it was 4.7 µM; in series [3], 5.3 µM. Moreover, the Ratio EC50 in the series with CHO was 2. The %max in [2] was found to be 73%; in series [10], 65%; in series [11] it was 33%. Also, the Kp at 0.25 h in series [4] amounted to 0.77. Moreover, in series [5], the Kp uu at 0.25 h worked out at 0.6. Moreover, the fraction unbound in series [6] and in series [7] was 0.01 in each case.
With `Cn1cc2c(-c3cc(F)c(CN4CCc5ncccc5C4=O)c(F)c3)cccc2n1`, the Ratio EC50 in the series with CHO was determined as 2. Besides, the concentration for a half-maximal effect (EC50) in series [1] is 4.3 µM; in series [3] it was greater than 10 µM. The %max in series [2] stood at 52%. In [4], the Kp at 0.25 h stood at 0.52. In addition, in [5], the Kp uu at 0.25 h was found to be 0.49. For the same compound, the fraction unbound in series [6] and in [7] was 0.01 throughout.
As to `Cn1cc2c(-c3cc(F)c(Cn4c(=O)cnc5ccccc54)c(F)c3)cccc2n1`, in the series with CHO, the Ratio EC50 was 2. The EC50 in series [1] was 4.9 µM; in series [3], greater than 10 µM. In series [2], the %max came to 67%. The compound further showed a partition ratio (Kp) at 0.25 h in series [4] of 2.16. In addition, the Kp uu at 0.25 h in series [5] came to 0.77. Moreover, the fraction unbound in series [6] and in series [7] was 0.01 in each case.
As for `Cn1cc2c(-c3cc(F)c(CN4CCn5nccc5C4=O)c(F)c3)cccc2n1`, the EC50 in [1] was greater than 10 µM.
For `Cn1cc(-c2ccc(CN3Cc4ncccc4C3=O)c(F)c2)cn1`, the EC50 in [8] is 2.6 µM; in series [9] it was greater than 10 µM; in [1], 3.2 µM; in series [3], 1.9 µM. For the same compound, the Ratio EC50 in the series on CHO is 3. For the same compound, the %max in series [2] is 75%; in [10], 79%; in series [11], 57%. In [4], this compound gave a Kp at 0.25 h of 0.3.
Consider `Cn1cnc2ccc(-c3cc(F)c(Cn4cnc5cnccc5c4=O)c(F)c3)cc21`, for which, in series [1], the EC50 was determined as 5.3 µM. In addition, in series [4] (brain, 0.25 h, BLD = below limit of detection), the Kp result was “BLD”. Further, the fraction unbound (in general, free concentration divided by total concentration) is 0.04 in series [6] and 0.06 in series [7].
On to `Cn1cc2c(-c3cc(F)c(CN4C=CC5=NCCN5C4=O)c(F)c3)cccc2n1`, for which the Ratio EC50 in the series on CHO was determined as 2. For the same compound, the EC50 in series [1] was 1.7 µM; in series [3] it was greater than 10 µM. In addition, the %max in [2] came out at 50%. Moreover, the Kp at 0.25 h in series [4] stood at 0.35. Also, in series [5], the Kp uu at 0.25 h was determined as 0.3. For the same compound, the fraction unbound stood at 0.08 in series [6] and 0.04 in [7].
For `Cn1cc2cc(-c3cc(F)c(CN4CCn5nccc5C4=O)c(F)c3)ccc2n1`, the EC50 in series [1] is 1.7 µM. The %max in series [2] came to 50%. The same compound returned a concentration ratio (Kp) at 0.25 h in series [4] of 0.4. Further, the Kpuu at 0.25 h in [5] amounted to 0.7. In addition, the fraction unbound in series [12] came out at 0.098; in series [6], 0.06; in [7], 0.05.
For the compound `Cn1cc2cc(-c3cc(F)c(Cn4c(=O)cnc5ncccc54)c(F)c3)ccc2n1`, the EC50 in series [1] was 2.8 µM. In [4], this compound displayed a Kp at 0.25 h of 1.64. This compound also returned a Kpuu at 0.25 h in series [5] of 1.1. Besides, the fraction unbound in [6] and in [7] was 0.04 in each case.

The record behind these values is ChEMBL document CHEMBL3822368, “Further optimization of the M1 PAM VU0453595: Discovery of novel heterobicyclic core motifs with improved CNS penetration” (Bioorg Med Chem Lett, 2016).
